Literature values in patent US20090155358A1, “PHARMACEUTICAL COMPOSITIONS OF SHORT-ACTING HYPNOTIC AGENTS IN MODIFIED-RELEASE FORMS AND THE […] PREPARE THE MENTIONED FORMULATION” (Gador S.A., priority 2005, published 2009).
Counter-ions that a name gives are not always drawn.

Key:
BZ1 receptor = target: T1, BZ1 receptor (Homo sapiens, UniProt P14867+P18507); details: in vitro
T1 sequence (P14867 28-456): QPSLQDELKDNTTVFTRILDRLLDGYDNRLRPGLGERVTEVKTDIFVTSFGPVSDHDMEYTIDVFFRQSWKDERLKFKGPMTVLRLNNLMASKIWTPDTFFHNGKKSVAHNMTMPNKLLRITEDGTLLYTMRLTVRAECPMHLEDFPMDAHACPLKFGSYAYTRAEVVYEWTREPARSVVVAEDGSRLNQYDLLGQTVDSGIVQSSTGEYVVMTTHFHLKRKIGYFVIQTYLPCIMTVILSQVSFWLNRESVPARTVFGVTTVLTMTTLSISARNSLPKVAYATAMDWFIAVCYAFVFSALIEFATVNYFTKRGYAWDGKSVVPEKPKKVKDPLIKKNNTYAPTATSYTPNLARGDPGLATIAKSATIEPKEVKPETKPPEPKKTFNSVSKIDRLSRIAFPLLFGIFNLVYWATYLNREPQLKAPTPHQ
T1 sequence (P18507 40-467 limits assumed): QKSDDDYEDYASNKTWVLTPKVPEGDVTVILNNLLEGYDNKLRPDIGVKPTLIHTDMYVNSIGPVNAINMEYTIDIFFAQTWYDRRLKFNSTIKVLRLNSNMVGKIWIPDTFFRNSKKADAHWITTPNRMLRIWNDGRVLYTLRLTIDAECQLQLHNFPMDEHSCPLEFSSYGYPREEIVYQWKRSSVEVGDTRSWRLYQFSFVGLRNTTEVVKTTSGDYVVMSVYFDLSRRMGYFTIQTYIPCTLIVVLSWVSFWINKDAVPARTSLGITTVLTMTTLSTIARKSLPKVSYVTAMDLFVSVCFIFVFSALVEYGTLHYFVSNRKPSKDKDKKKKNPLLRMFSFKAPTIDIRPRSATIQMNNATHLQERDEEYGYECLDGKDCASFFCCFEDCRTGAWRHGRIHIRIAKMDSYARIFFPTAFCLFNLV
T1 sequence (P47870 25-512 partner limits assumed): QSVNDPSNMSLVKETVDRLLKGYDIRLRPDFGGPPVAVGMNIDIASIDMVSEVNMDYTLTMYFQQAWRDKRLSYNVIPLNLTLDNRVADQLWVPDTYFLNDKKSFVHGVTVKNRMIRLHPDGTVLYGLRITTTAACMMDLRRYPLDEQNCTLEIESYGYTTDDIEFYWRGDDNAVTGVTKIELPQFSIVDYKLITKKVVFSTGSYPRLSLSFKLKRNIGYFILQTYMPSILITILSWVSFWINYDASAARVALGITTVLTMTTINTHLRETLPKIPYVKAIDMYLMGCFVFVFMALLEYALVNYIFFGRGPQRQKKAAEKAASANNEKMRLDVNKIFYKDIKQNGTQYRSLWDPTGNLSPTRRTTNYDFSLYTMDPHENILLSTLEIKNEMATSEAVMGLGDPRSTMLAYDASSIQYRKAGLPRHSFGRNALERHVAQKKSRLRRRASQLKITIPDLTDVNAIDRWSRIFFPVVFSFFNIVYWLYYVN

SMILES | solubility in alcohol (alcohol) | solubility in propylene glycol (propylene glycol) | solubility in water (water) | affinity for BZ1 receptor, subunits α1/α5 (BZ1 receptor)
Cc1ccc(-c2nc3ccc(C)cn3c2CC(=O)N(C)C)cc1 [Zolpidem tartrate, N,N,6-trimethyl-2-p-toyl-imidazo[1,2-a]pyridine-3-acetamide] | sparingly soluble | sparingly soluble | sparingly soluble | –
Cc1ccc(-c2nc3ccc(C)cn3c2CC(=O)N(C)C)cc1 [Zolpidem, N,N,6-trimethyl-2-p-toyl-imidazo[1,2-a]pyridine-3-acetamide] | – | – | – | large affinity
